# Reference: ChEMBL document CHEMBL1135029, “Novel dihydropyrazine analogues as NPY antagonists” (Bioorg Med Chem Lett, 2002)
# Biological target: T1, Neuropeptide Y receptor type 1 (Homo sapiens, UniProt P25929)
# T1 sequence (P25929 whole entry): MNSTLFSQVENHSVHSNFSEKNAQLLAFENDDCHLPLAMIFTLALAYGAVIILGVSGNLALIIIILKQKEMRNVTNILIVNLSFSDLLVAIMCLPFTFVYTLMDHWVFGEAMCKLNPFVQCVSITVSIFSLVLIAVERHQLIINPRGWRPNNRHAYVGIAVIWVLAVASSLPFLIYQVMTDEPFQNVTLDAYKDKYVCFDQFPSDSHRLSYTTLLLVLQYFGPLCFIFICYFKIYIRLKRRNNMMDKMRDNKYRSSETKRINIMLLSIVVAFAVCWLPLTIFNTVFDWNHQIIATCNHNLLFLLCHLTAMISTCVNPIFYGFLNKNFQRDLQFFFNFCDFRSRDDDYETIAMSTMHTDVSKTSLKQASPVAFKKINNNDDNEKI
# Assay: Binding affinity against Neuropeptide Y receptor type 1 using I-PYY as a radioligand in human neuroblastoma SK-N-MC cells
# Format: cell-based
row,IC50 [nM],SMILES
1,4.2,COC(=O)C1=C(C)N=C(C)/C(=C(/O)OC)C1c1cccc(NC(=O)NCCCN2CCC(c3cccc(OC)c3)CC2)c1 (stereo not drawn)

# Biological target: T1, Neuropeptide Y receptor type 1
# Assay: Inhibition of I-PYY binding to Nueopeptide Y1 receptor expressed in human neuroblastoma SK-N-MC cells
# Format: cell-based
row,IC50 [nM],SMILES
1,132,COC(=O)C1=C(C)N=C(C)/C(=C(/O)OC)C1c1cccc(N/C(S)=N/CCCN2CCN(C3CCCCC3)CC2)c1 (stereo not drawn)
2,554,COC(=O)C1=C(C)N=C(C)/C(=C(/O)OC)N1c1cccc(NC(=O)NCCCN2CCC(c3cccc(OC)c3)CC2)c1
3,176,COC(=O)C1=C(C)N=C(C)/C(=C(/O)OC)C1c1cccc(NC(=O)NCCCN2CCN(C3CCCCC3)CC2)c1 (stereo not drawn)
4,945,COC(=O)C1=C(C)N=C(C)/C(=C(/O)OC)N1c1cccc(N/C(S)=N/CCCN2CCC(c3cccc(OC)c3)CC2)c1
5,434,COC(=O)C1=C(C)N=C(C)/C(=C(/O)OC)N1c1cccc(NC(=O)NCCCN2CCN(C3CCCCC3)CC2)c1

# The remaining lines, values behind:
row,SMILES,IC50 [nM]
1,COC(=O)C1=C(C)N=C(C)/C(=C(/O)OC)C1c1cccc(N/C(=N/CCCN2CCC(c3ccccc3)CC2)NC#N)c1 (stereo not drawn),5.4
2,COC(=O)C1=C(C)N=C(C)/C(=C(/O)OC)N1c1cccc(N/C(=N/CCCN2CCC(c3ccccc3)CC2)NC#N)c1,268
3,COC(=O)C1=C(C)N=C(C)/C(=C(/O)OC)N1c1cccc(N/C(S)=N/CCCN2CCN(C3CCCCC3)CC2)c1,> 1000
4,COC(=O)C1=C(C)N=C(C)/C(=C(/O)OC)C1c1cccc(N/C(=N/CCCN2CCC(C(C)(C)C)CC2)NC#N)c1 (stereo not drawn),< 1
5,COC(=O)C1=C(C)N=C(C)/C(=C(/O)OC)N1c1cccc(N/C(S)=N/CCCN2CCC(C(C)(C)C)CC2)c1,> 1000
6,COC(=O)C1=C(C)N=C(C)/C(=C(/O)OC)C1c1cccc(N/C(S)=N/CCCN2CCC(c3cccc(OC)c3)CC2)c1 (stereo not drawn),12.8
7,COC(=O)C1=C(C)N=C(C)/C(=C(/O)OC)N1c1cccc(N/C(=N/CCCN2CCC(C(C)(C)C)CC2)NC#N)c1,231
